These results are taken from paper PMC9963398, “Discovery of New Quinolone-Based Diarylamides as Potent B-RAF^V600E/C-RAF Kinase Inhibitors Endowed with Promising In Vitro Anticancer Activity” (International Journal of Molecular Sciences, 2023).

Like-named read-outs stand apart in the source and are kept apart here.

Assay [1] concerns DU-145. Briefly: NCI-60 five-dose SRB assay. In kind it is cell-based. To be noted: Homo sapiens; DU-145, Prostate cancer, five-dose test. The essentials: (§1)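 The National Cancer Institute ran the sulforhodamine B assay on its complete panel of sixty human cancer cell lines, following its standard protocol.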
Background: The SRB assay estimates cell density from bound dye.

A further assay concerns SR. In words: NCI-60 five-dose SRB assay. To be noted: Homo sapiens, Leukemia, five-dose test. In kind it is cell-based. The gist of the method:
as §1

The subject of another assay is SNB-19. In words: NCI-60 five-dose SRB assay. In kind it is cell-based. Particulars: Homo sapiens; SNB-19, CNS cancer, five-dose test. The essentials:
as §1

The test system of another assay is HS 578T. Briefly: NCI-60 five-dose SRB assay. In kind it is cell-based. Particulars: Homo sapiens, Breast cancer, five-dose test. The essentials:
as §1

Another assay deals with TK-10. In words: NCI-60 five-dose SRB assay. In kind it is cell-based. Particulars: Homo sapiens; TK-10, Renal cancer, five-dose test. The gist of the method:
as §1

Another assay has as its system UO-31. Briefly: NCI-60 five-dose SRB assay. Particulars: Homo sapiens; UO-31, Renal cancer, five-dose test. Type of assay: cell-based. The gist of the method:
as §1

The test system of another assay is BT-549. Briefly: NCI-60 five-dose SRB assay. In kind it is cell-based. To be noted: Homo sapiens; BT-549, Breast cancer, five-dose test. The gist of the method: as §1
The next assay deals with SK-OV-3. Briefly: NCI-60 five-dose SRB assay. In kind it is cell-based. Particulars: Homo sapiens; SK-OV-3, Ovarian cancer, five-dose test. The essentials: as §1
The test system of a further assay is HCT-15. Briefly: NCI-60 five-dose SRB assay. Particulars: Homo sapiens; HCT-15, Colon cancer, five-dose test. Type of assay: cell-based. The gist of the method:
as §1

A further assay deals with A498. Briefly: NCI-60 five-dose SRB assay. In kind it is cell-based. To be noted: Homo sapiens; A498, Renal cancer, five-dose test. The gist of the method:
as §1

For another assay, the system named is NCI-H23. In words: NCI-60 five-dose SRB assay. Type of assay: cell-based. Particulars: Homo sapiens; NCI-H23, NSCL cancer, five-dose test. The essentials:
as §1

The next assay has as its system HT29. In words: NCI-60 five-dose SRB assay. In kind it is cell-based. To be noted: Homo sapiens, HT-29; HT29, Colon cancer, five-dose test. The essentials:
as §1

The subject of the next assay is OVCAR-5. Briefly: NCI-60 five-dose SRB assay. Type of assay: cell-based. To be noted: Homo sapiens; OVCAR-5, Ovarian cancer, five-dose test. The gist of the method: as §1
In another assay the test system is RPMI-8226. Briefly: NCI-60 five-dose SRB assay. Type of assay: cell-based. Particulars: Homo sapiens; RPMI-8226, Leukemia, five-dose test. The essentials: as §1
The subject of the next assay is SN12C. In words: NCI-60 five-dose SRB assay. Type of assay: cell-based. Particulars: Homo sapiens, Renal cancer, five-dose test. The gist of the method: as §1
A further assay has as its system NCI-H460. Briefly: NCI-60 five-dose SRB assay. In kind it is cell-based. To be noted: Homo sapiens; NCI-H460, NSCL cancer, five-dose test. The essentials: as §1
In another assay the test system is EKVX. In words: NCI-60 five-dose SRB assay. Type of assay: cell-based. To be noted: Homo sapiens, NSCL cancer, five-dose test. The essentials:
as §1

Another assay concerns SF-268. In words: NCI-60 five-dose SRB assay. In kind it is cell-based. Particulars: Homo sapiens; SF-268, CNS cancer, five-dose test. The essentials:
as §1

For another assay, the system named is NCI/ADR-RES. Briefly: NCI-60 five-dose SRB assay. Type of assay: cell-based. To be noted: Homo sapiens, Ovarian cancer, five-dose test. The essentials:
as §1

A further assay addresses T1, B-RAF^V600E (Homo sapiens, UniProt P15056, V600E).
T1 construct: purchased Reaction Biology Corporation (RBC), Kinase HotSpot service
Briefly: HotSpot kinase assay (RBC), B-RAF^V600E. Type of assay: biochemical.

Assay [2] has as its system NCI-60 human tumor cell lines. In words: NCI-60 five-dose testing, ranges over panel or subpanel. Type of assay: cell-based. Here is the method: The anticancer screening of target compounds over a full panel of 60 human cancer cell lines was carried out using Sulforhodamine B (SRB) assay at the National Cancer Institute (NCI), Bethesda, Maryland, USA, employing the standard protocol.

In assay [3] the test system is NCI-60 human cancer cell lines. Briefly: NCI-60 single dose (10 µM) testing. Particulars: single dose 10 µM. In kind it is cell-based. The procedure:
Encouraged by the promising results in the cell-free assay, the antiproliferative activity of all final compounds was evaluated by the National Cancer Institute (NCI) in a single dose of 10 µM over a library of 60 human cancer cell lines representing nine cancer types; leukemia, non-small cell lung (NSCL), colon, central nervous system (CNS), melanoma, ovarian, renal, prostate, and breast cancer.

The target of another assay is T2, B-RAF^V600K (Homo sapiens, UniProt P15056, V600K).
T2 construct: purchased Reaction Biology Corporation (RBC), Kinase HotSpot service
Briefly: HotSpot kinase assay (RBC), B-RAF^V600K. Particulars: 10 µM ATP. In kind it is biochemical. Here is the method:
To gain insight into the inhibitory mode of this new array of quinolines, 18a was tested at 1 µM concentration of ATP to compare it with its IC50 at 10 µM (Table 2).

The test system of a further assay is CAKI-1. Further details: method as in PMID 32745753. Particulars: CAKI-1, Renal cancer; cited from earlier work.
The next assay has as its system SF-539. Further details: method as in PMID 32745753. To be noted: SF-539, CNS cancer; cited from earlier work.
The subject of a further assay is MCF7. Further details: method as in PMID 32745753. Particulars: MCF7, Breast cancer; cited from earlier work.
For another assay, the system named is LOX IMVI. Also noted: method as in PMID 32745753. To be noted: Melanoma; cited from earlier work.
For the next assay, the system named is M14. Further details: method as in PMID 32745753. Particulars: M14, Melanoma; cited from earlier work.
In assay [4] the test system is DU-145. Further details: method as in PMID 32745753. Particulars: DU-145, Prostate cancer; cited from earlier work.
A further assay relates to NCI-H226. Further details: method as in PMID 32745753. To be noted: NCI-H226, NSCL cancer; cited from earlier work.
The subject of the next assay is NCI-H522. Further details: method as in PMID 32745753. To be noted: NCI-H522, NSCL cancer; cited from earlier work.
A further assay concerns SK-MEL-2. Also noted: method as in PMID 32745753. To be noted: SK-MEL-2, Melanoma; cited from earlier work.
A further assay relates to MDA-MB-468. Particulars: MDA-MB-468, Breast cancer; cited from earlier work.
In the next assay the test system is RXF 393. Further details: method as in PMID 32745753. Particulars: RXF 393, Renal cancer; cited from earlier work.
Where [5] appears, read: 10 µM ATP, 10-dose singlicate IC50 mode.
Where [6] appears, read: Homo sapiens, MOLT-4, all leukemia cell lines, except MOLT-4.
Where [7] appears, read: MALME-3M, MDA-MB-435, SK-MEL-2, and UACC-62.
Where [8] appears, read: melanoma LOX IMVI, SK-MEL-28, and SK-MEL-5.
The mark [9] stands for this setting: Homo sapiens, colon cancer cell lines, range over lines.

T1 sequence (P15056 whole entry V600E): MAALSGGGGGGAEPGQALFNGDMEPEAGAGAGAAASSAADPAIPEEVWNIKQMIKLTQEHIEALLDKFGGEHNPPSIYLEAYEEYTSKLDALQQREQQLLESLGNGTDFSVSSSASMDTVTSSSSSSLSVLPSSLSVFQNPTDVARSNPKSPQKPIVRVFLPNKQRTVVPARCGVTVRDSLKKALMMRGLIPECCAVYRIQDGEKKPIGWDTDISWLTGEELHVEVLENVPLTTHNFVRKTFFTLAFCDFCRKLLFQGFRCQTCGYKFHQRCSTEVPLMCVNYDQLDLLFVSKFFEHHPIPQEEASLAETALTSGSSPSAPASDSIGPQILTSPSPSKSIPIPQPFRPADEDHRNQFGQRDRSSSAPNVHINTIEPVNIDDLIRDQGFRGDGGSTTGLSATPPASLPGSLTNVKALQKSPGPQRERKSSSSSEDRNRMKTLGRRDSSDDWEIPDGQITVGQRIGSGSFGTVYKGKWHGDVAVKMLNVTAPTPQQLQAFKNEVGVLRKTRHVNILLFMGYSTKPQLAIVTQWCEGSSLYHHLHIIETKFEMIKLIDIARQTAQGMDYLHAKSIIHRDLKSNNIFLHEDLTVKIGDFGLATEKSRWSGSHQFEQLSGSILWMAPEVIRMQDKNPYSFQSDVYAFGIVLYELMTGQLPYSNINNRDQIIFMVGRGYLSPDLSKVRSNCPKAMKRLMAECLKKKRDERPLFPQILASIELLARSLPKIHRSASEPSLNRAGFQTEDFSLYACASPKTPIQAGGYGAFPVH
T2 sequence (P15056 whole entry V600K): as the sequence (P15056 whole entry V600E) above, with E600K counted along it

As to `CN1CCN(Cc2ccc(C(=O)Nc3cccc(Nc4ccc5c(O)cccc5n4)c3)cc2C(F)(F)F)CC1` [Compound 17a, N-(3-((5-hydroxyquinolin-2-yl)amino)phenyl)-4-((4-methylpiperazin-1-yl)methyl)-3-(trifluoromethyl)benzamide], the concentration for 50% growth inhibition (GI50) (as a rule, the concentration at which growth is held to half of that of the control) in the assay on DU-145 [1] was 4.68 µM; with SR it was 4.39 µM; with SNB-19, 2390 nM; in the assay on HS 578T it was 2960 nM; in the assay on TK-10 it was 3.36 µM; in the assay on UO-31, 1990 nM. For the same molecule, the GI50 in the assay with BT-549 is 15.6 µM; in the assay on SK-OV-3, 14.4 µM; with HCT-15, 1820 nM; in the assay on A498 it was 17.5 µM; in the assay on NCI-H23, 2260 nM; with HT29, 2060 nM. Besides, the GI50 turned out to be 3.24 µM in the assay on OVCAR-5; 2920 nM with RPMI-8226; 2340 nM with SN12C; 2190 nM with NCI-H460; 3.75 µM in the assay on EKVX; 3.81 µM with SF-268. Also, the GI50 with NCI/ADR-RES is 3.45 µM; in assay [2] (setting [6]), over 2000 nM. Further, inhibition at B-RAF^V600E (setting [5]) was half-maximal at 137 ± 13.2 nM (IC50). Moreover, the results for the growth percent result in assay [3] (setting [7]) and in assay [3] (setting [8]) were “less than -90” and −100, respectively.

In the case of `CN1CCCN(Cc2ccc(C(=O)Nc3cccc(Nc4ccc5c(O)cccc5n4)c3)cc2C(F)(F)F)CC1` [Compound 17b, N-(3-((5-hydroxyquinolin-2-yl)amino)phenyl)-4-((4-methyl-1,4-diazepan-1-yl)methyl)-3-(trifluoromethyl)benzamide], the GI50 in the assay on DU-145 [1] was found to be 3.27 µM; in the assay with SNB-19, 2030 nM; in the assay on HS 578T, 1930 nM; in the assay on TK-10 it was 2.8 µM; in the assay with UO-31, 2040 nM; in the assay with BT-549, 1.8 µM. Besides, the GI50 in the assay with SK-OV-3 was found to be 11.1 µM; in the assay on HCT-15 it was 1930 nM; in the assay on A498, 15.3 µM; in the assay on NCI-H23, 1780 nM; with HT29 it was 1920 nM; with OVCAR-5, 11.4 µM. The GI50 in the assay with RPMI-8226 worked out at 2890 nM; in the assay on SN12C it was 1830 nM; with NCI-H460, 1810 nM; in the assay with EKVX, 1.82 µM; in the assay with SF-268 it was 2.14 µM; in the assay on NCI/ADR-RES, 6.43 µM. For the same molecule, the GI50 is over 2000 nM in assay [2] (setting [6]); under 2000 nM in [2] (setting [9]); 1600 to 1890 nM in assay [2] (Homo sapiens, melanoma cell lines, range over lines); under 2000 nM in [2] (melanoma cell lines, range over lines). The results for the IC50 against B-RAF^V600E (setting [5]) and against B-RAF^V600K were 128 ± 0.05 nM and 61.6 ± 1 nM, respectively. For the same molecule, the growth percent entry is recorded as “less than -90” in assay [3] (setting [7]); −100 in assay [3] (setting [8]); “under −90%” in assay [3] (melanoma SK-MEL-29, SK-MEL-5, and UACC-62).

For `CN1CCN(Cc2ccc(C(=O)Nc3cccc(Nc4ccc5cc(O)ccc5n4)c3)cc2C(F)(F)F)CC1` [Compound 18a, N-(3-((6-hydroxyquinolin-2-yl)amino)phenyl)-4-((4-methylpiperazin-1-yl)methyl)-3-(trifluoromethyl)benzamide], the GI50 in the assay on DU-145 [1] was 10.5 µM; with SR it was 2.68 µM; in the assay with SNB-19 it was 13800 nM; with HS 578T it was 4170 nM; with TK-10, 21.4 µM; in the assay with UO-31, 13400 nM. The GI50 with BT-549 was 12.2 µM; with SK-OV-3, 16.5 µM; in the assay on HCT-15 it was 2090 nM; with A498, 22.5 µM; in the assay on NCI-H23, 13900 nM; in the assay with HT29 it was 3370 nM. The GI50 in the assay on OVCAR-5 came out at 14.2 µM; with RPMI-8226 it was 2650 nM; in the assay with SN12C, 14100 nM; with NCI-H460, 3840 nM; in the assay on EKVX, 14.2 µM; in the assay with SF-268 it was 10.4 µM. The GI50 in assay [2] (Homo sapiens, LOX IMVI, MALME-3M, and SK-MEL-28) lay within 1590 to 1790 nM; in assay [2] (Homo sapiens, NSCL cell lines, range over lines), 3390 to 17800 nM; in [2] (setting [9]) it was 2090 to 18500 nM. Moreover, the IC50 (usually the concentration that inhibits the measured activity by half) against B-RAF^V600E (1 µM ATP) is 84.3 ± 9 nM; on B-RAF^V600E (setting [5]), 114 ± 4.95 nM; at B-RAF^V600K it was under 5.08 nM. Besides, the “GI50 increase relative to 17a” value in assay [2] (other melanoma cell lines) is given as 1.37–9.11 fold. Further, the growth percent entry in assay [3] (setting [7]) is recorded as “less than -90”; in [3] (setting [8]), −100.

Regarding `CNC(=O)c1cc(Oc2ccc(NC(=O)Nc3ccc(Cl)c(C(F)(F)F)c3)cc2)ccn1` [Sorafenib], the GI50 is 2900 nM in the assay on CAKI-1; 1600 nM with SF-539; 2800 nM with MCF7; 1600 nM in the assay with LOX IMVI; 2200 nM in the assay on M14; 3.3 µM with DU-145 [4]. The GI50 in the assay on NCI-H226 is 1900 nM; in the assay on NCI-H522, 2100 nM; in the assay on SK-MEL-2 it was 1800 nM; in the assay with MDA-MB-468 it was 2000 nM; in the assay with RXF 393, 3.4 µM.
